One data set can be described thus: in vitro. The following applies: human.
Another data set deals with rgRSV224 virus. Briefly: Antiviral activity: rgRSV224 (GFP) replication in HeLa cells. Conditions: human respiratory syncytial virus, 72 h, read-out: RSV HELA EC50.
Data set [1] can be described thus: Cytotoxicity in HeLa cells (ATP content, ATPlite kit). Conditions: human. For orientation: In ATP-based viability assays light output follows the ATP content of the culture.
Experimental: (§1) Black 384-well clear-bottom microtiter plates (Corning, Amsterdam, The Netherlands) were filled via acoustic drop ejection using the echo liquid handler (Labcyte, Sunnyvale, Calif.). 200 nL of compound stock solutions (100% DMSO) were transferred to the assay plates. 9 serial 4-fold dilutions of compound were made, creating per quadrant the same compound concentration. The assay was initiated by adding 10 μL of culture medium to each well (RPMI medium without phenol red, 10% FBS-heat inactivated, 0.04% gentamycin (50 mg/mL). All addition steps are done by using a multidrop dispenser (Thermo Scientific, Erembodegem, Belgium). Next, rgRSV224 virus (MOI=1) diluted in culture medium was added to the plates. rgRSV224 virus is an engineered virus that includes an additional GFP gene (Hallak L K, Spillmann D, Collins P L, Peeples M E. Glycosaminoglycan sulfation requirements for respiratory syncytial virus infection; Journal of virology (2000), 74(22), 10508-13) and was in-licensed from the NIH (Bethesda, Md., USA). Finally, 20 μL of a HeLa cell suspension (3,000 cells/well) were plated. Medium, virus- and mock-infected controls were included in each test. The wells contain 0.05% DMSO per volume. Cells were incubated at 37° C. in a 5% CO2 atmosphere. Three days post-virus exposure, viral replication was quantified by measuring GFP expression in the cells by an in house developed MSM laser microscope (Tibotec, Beerse, Belgium). The EC50 was defined as the 50% inhibitory concentration for GFP expression. In parallel, compounds were incubated for three days in a set of white 384-well microtiter plates (Corning) and the cytotoxicity of compounds in HeLa cells was determined by measuring the ATP content of the cells using the ATPlite kit (Perkin Elmer, Zaventem, Belgium) according to the manufacturer's instructions. The CC50 was defined as the 50% concentration for cytotoxicity.

pEC50: −log10 of the molar value.

Experimental for in vitro: as §1
Experimental for rgRSV224 virus: as §1

As a reminder, the melting point is the temperature, or range, at which the solid turns liquid. Broadly, the pEC50 is the EC50 on a negative log10 scale, so that one unit is a factor of ten. For `CCCNC(=O)[C@H]1C[C@@H]1c1ccc(-c2cc3nc(C(=O)N4CCc5ccccc5[C@H]4C)cc(C4CC4)n3n2)c(F)c1` [Compound 15, (1S,2S)-2-(4-{7-Cyclopropyl-5-[(1R)-1-methyl-1,2,3,4-tetrahydroisoquinoline-2-carbonyl]pyrazolo[1,5-a]pyrimidin-2-yl}-3-fluorophenyl)-N-propylcyclopropane-1-carboxamide], the melting point was found to be 238.1 °C. The same compound came in with a CC50 at 3 days in “in vitro” of more than 100000 nM. In addition, the pEC50 in the data set on rgRSV224 virus is 6.39.
`C=CCNC(=O)[C@H]1C[C@@H]1c1ccc(-c2cc3nc(C(=O)N4CCc5ccccc5[C@H]4C)cc(C4CC4)n3n2)c(F)c1` [Compound 16, (1S,2S)-2-(4-{7-Cyclopropyl-5-[(1R)-1-methyl-1,2,3,4-tetrahydroisoquinoline-2-carbonyl]pyrazolo[1,5-a]pyrimidin-2-yl}-3-fluorophenyl)-N-(prop-2-en-1-yl)cyclopropane-1-carboxamide]: the melting point is 240.35 °C. This compound also had a CC50 at 3 days in “in vitro” of more than 100000 nM. Moreover, the pEC50 in the data set with rgRSV224 virus was 6.58.
Regarding `C[C@@H]1c2ccccc2CCN1C(=O)c1cc(C2CC2)n2nc(-c3ccc([C@H]4C[C@@H]4C(=O)NCCC#N)cc3F)cc2n1` [Compound 18, (1S,2S)—N-(2-Cyanoethyl)-2-(4-{7-cyclopropyl-5-[(1R)-1-methyl-1,2,3,4-tetrahydro-isoquinoline-2-carbonyl]pyrazolo[1,5-a]pyrimidin-2-yl}-3-fluorophenyl)cyclopropane-1-carboxamide], the melting point worked out at 212.72 °C. The compound also gave a CC50 at 3 days in the data set “in vitro” of more than 100000 nM. The pEC50 with rgRSV224 virus was 7.12.
In turn, `C[C@@H]1c2ccccc2CCN1C(=O)c1cc(C2CC2)n2nc(-c3ccc([C@H]4C[C@@H]4C(=O)NC4COC4)cc3F)cc2n1` [Compound 19, (1S,2S)-2-(4-{7-Cyclopropyl-5-[(1R)-1-methyl-1,2,3,4-tetrahydroisoquinoline-2-carbonyl]-pyrazolo[1,5-a]pyrimidin-2-yl}-3-fluorophenyl)-N-(oxetan-3-yl)cyclopropane-1-carboxamide] displayed a melting point of 248.97 °C. In the data set “in vitro”, the CC50 at 3 days was more than 100000 nM. Also, the pEC50 in the data set on rgRSV224 virus was 7.02.
In turn, `C[C@@H]1c2ccccc2CCN1C(=O)c1cc(C2CC2)n2nc(-c3ccc([C@H]4C[C@@H]4C(=O)NS(C)(=O)=O)cc3F)cc2n1` [Compound 24, (1S,2S)-2-(4-{7-Cyclopropyl-5-[(1R)-1-methyl-1,2,3,4-tetrahydroisoquinoline-2-carbonyl]pyrazolo[1,5-a]pyrimidin-2-yl}-3-fluorophenyl)-N-methanesulfonyl-cyclopropane-1-carboxamide] came in with a melting point of 166.75 °C. The same compound had a CC50 at 3 days in the data set “in vitro” of 44900 nM. Besides, in the data set with rgRSV224 virus, the pEC50 was 7.70.
In the case of `CCS(=O)(=O)NC(=O)[C@H]1C[C@@H]1c1ccc(-c2cc3nc(C(=O)N4CCc5ccccc5[C@H]4C)cc(C4CC4)n3n2)c(F)c1` [Compound 25, (1S,2S)-2-(4-{7-Cyclopropyl-5-[(1R)-1-methyl-1,2,3,4-tetrahydroisoquinoline-2-carbonyl]pyrazolo[1,5-a]pyrimidin-2-yl}-3-fluorophenyl)-N-(ethanesulfonyl)-cyclopropane-1-carboxamide], the melting point was 171.93 °C. Further, the CC50 at 3 days in “in vitro” amounted to 51900 nM. For the same compound, in the data set on rgRSV224 virus, the pEC50 was 7.47.
On the same counts, the results for `CC(C)CS(=O)(=O)NC(=O)[C@H]1C[C@@H]1c1ccc(-c2cc3nc(C(=O)N4CCc5ccccc5[C@H]4C)cc(C4CC4)n3n2)c(F)c1` [Compound 26, (1S,2S)-2-(4-{7-Cyclopropyl-5-[(1R)-1-methyl-1,2,3,4-tetrahydroisoquinoline-2-carbonyl]pyrazolo[1,5-a]pyrimidin-2-yl}-3-fluorophenyl)-N-(2-methylpropanesulfonyl)-cyclopropane-1-carboxamide] are 160.53 °C, 52100 nM and 6.86.
Regarding `C[C@@H]1c2ccccc2CCN1C(=O)c1cc(C2CC2)n2nc(-c3ccc([C@H]4C[C@@H]4C(=O)NS(=O)(=O)C4CC4)cc3F)cc2n1` [Compound 27, (1S,2S)—N-(Cyclopropanesulfonyl)-2-(4-{7-cyclopropyl-5-[(1R)-1-methyl-1,2,3,4-tetrahydroisoquinoline-2-carbonyl]pyrazolo[1,5-a]pyrimidin-2-yl}-3-fluorophenyl)-cyclopropane-1-carboxamide], the melting point was 177.21 °C. The compound further displayed a CC50 at 3 days in the data set “in vitro” of 55800 nM. For the same compound, the pEC50 with rgRSV224 virus is 7.40.
Take `C[C@@H]1c2ccccc2CCN1C(=O)c1cc(C2CC2)n2nc(-c3ccc([C@H]4C[C@@H]4NC(=O)NC4CC4)cc3F)cc2n1` [Compound 30, 1-Cyclopropyl-3-[(1S,2R)-2-(4-{7-cyclopropyl-5-[(1R)-1-methyl-1,2,3,4-tetrahydro-isoquinoline-2-carbonyl]pyrazolo[1,5-a]pyrimidin-2-yl}-3-fluorophenyl)cyclopropyl]urea]: the melting point was 213.73 °C. The same compound showed a CC50 at 3 days in “in vitro” of 40800 nM. Also, the pEC50 in the data set with rgRSV224 virus is 7.31.
On the same counts, the results for `CC(=O)N[C@H]1C[C@@H]1c1ccc(-c2cc3nc(C(=O)N4CCc5ccccc5[C@H]4C)cc(C4CC4)n3n2)c(F)c1` [Compound 34, N-[(1S,2R)-2-(4-{7-Cyclopropyl-5-[(1R)-1-methyl-1,2,3,4-tetrahydroisoquinoline-2-carbonyl]pyrazolo[1,5-a]pyrimidin-2-yl}-3-fluorophenyl)cyclopropyl]acetamide] are 232.53 °C, more than 100000 nM and 7.66.
In turn, `C[C@@H]1c2ccccc2CCN1C(=O)c1cc(C2CC2)n2nc(-c3ccc([C@H]4C[C@@H]4NP(C)(C)=O)cc3F)cc2n1` [Compound 37, (1R)-2-(7-Cyclopropyl-2-{4-[(1R,2S)-2-[(dimethylphosphoryl)amino]cyclopropyl]-2-fluorophenyl}pyrazolo[1,5-a]pyrimidine-5-carbonyl)-1-methyl-1,2,3,4-tetrahydroisoquinoline] displayed a CC50 at 3 days in data set [1] of 41600 nM. In the data set with rgRSV224 virus, the pEC50 was 7.20.
For `C[C@@H]1c2ccccc2CCN1C(=O)c1cc(C2CC2)n2nc(-c3ccc([C@H]4C[C@@H]4OC(N)=O)cc3F)cc2n1` [Compound 39, (1S,2R)-2-(4-{7-Cyclopropyl-5-[(1R)-1-methyl-1,2,3,4-tetrahydroisoquinoline-2-carbonyl]pyrazolo[1,5-a]pyrimidin-2-yl}-3-fluorophenyl)cyclopropyl carbamate], the melting point was found to be 297.87 °C. Moreover, the CC50 at 3 days in the data set “in vitro” is 12500 nM. For the same compound, the pEC50 with rgRSV224 virus was 7.09.
In the case of `CNC(=O)O[C@H]1C[C@@H]1c1ccc(-c2cc3nc(C(=O)N4CCc5ccccc5[C@H]4C)cc(C4CC4)n3n2)c(F)c1` [Compound 40, (1S,2R)-2-(4-{7-Cyclopropyl-5-[(1R)-1-methyl-1,2,3,4-tetrahydroisoquinoline-2-carbonyl]pyrazolo[1,5-a]pyrimidin-2-yl}-3-fluorophenyl)cyclopropyl N-methylcarbamate], the melting point amounted to 274.46 °C. Also, the CC50 at 3 days in the data set “in vitro” is more than 100000 nM. The pEC50 in the data set on rgRSV224 virus was 6.86.
On the same counts, the results for `C[C@@H]1c2ccccc2CCN1C(=O)c1cc(C2CC2)n2nc(-c3ccc([C@H]4C[C@@H](CO)C4)cc3F)cc2n1` [Compound 42, [cis-3-(4-{7-Cyclopropyl-5-[(1R)-1-methyl-1,2,3,4-tetrahydroisoquinoline-2-carbonyl]-pyrazolo[1,5-a]pyrimidin-2-yl}-3-fluorophenyl)cyclobutyl]methanol] are 129.63 °C, 69200 nM and 6.58.
Take `C[C@@H]1c2ccccc2CCN1C(=O)c1cc(C2CC2)n2nc(-c3ccc([C@H]4C[C@@H](COC(N)=O)C4)cc3F)cc2n1` [Compound 44, [cis-3-(4-{7-Cyclopropyl-5-[(1R)-1-methyl-1,2,3,4-tetrahydroisoquinoline-2-carbonyl]pyrazolo[1,5-a]pyrimidin-2-yl}-3-fluorophenyl)cyclobutyl]methyl carbamate]: the melting point was 300.97 °C. Also, the CC50 at 3 days in “in vitro” was more than 100000 nM. Also, the pEC50 with rgRSV224 virus is 6.48.
On the same counts, the results for `CNC(=O)C[C@H]1C[C@@H](c2ccc(-c3cc4nc(C(=O)N5CCc6ccccc6[C@H]5C)cc(C5CC5)n4n3)c(F)c2)C1` [Compound 48, N-methyl-2-[cis-3-(4-{7-cyclopropyl-5-[(1R)-1-methyl-1,2,3,4-tetrahydroisoquinoline-2-carbonyl]pyrazolo[1,5-a]pyrimidin-2-yl}-3-fluorophenyl)cyclobutyl]acetamide] are 143.95 °C, 23900 nM and 6.82.

The record behind these values is patent publication US11491157B2, “Cycloalkyl substituted pyrazolopyrimidines having activity against RSV” (priority 2018, dated 2022).
